Patent publication US12702671B2, “Calcineurin inhibitors of the setron family for the treatment of hearing loss” (SENSORION, priority 2015, dated 2026)
Counter-ions that a name gives are not always drawn.

Experiments:
[1] = tested on: calcineurin; test: Calcineurin phosphatase activity in cerebellar granule neurons after 4 DIV (malachite green colorimetric assay, Test A); format: cell-based, Wistar rat
Description: According to Test A, phosphatase calcineurin activity is assessed in cerebellar granule neurons (CGNs) using a colorimetric assay kit based on quantification of the green complex formed between malachite green, molybdate and free phosphate released. CGNs are detached from plates, for example by scraping, rinsed in ice-cold tris buffer solution (TBS) and counted. About 10 million cells are lysed in 1 ml of the provided lysis buffer and centrifuged at 150,000×g at 4° C. for 45 min, and the supernatant may be stored at −70° C. until analysis. Prior to calcineurin activity assay, free phosphate and nucleotides are removed from cellular extract by gel filtration. To ensure the complete removal of phosphate, malachite green reagent may be added, which will turn the color green in presence of phosphate. A specific calcineurin substrate is added to phosphate-free cellular extracts and after appropriate incubation period, malachite green reagent is applied. The rapid green color formation from the reaction is measured, for example on a spectrophotometer. The developed color is proportional to the calcineurin phosphatase activity of samples. Absorbance values, read at 620 nm, may thus be transformed to percentage calcineurin activity relative to K25 control treatment (100%). Cerebellar granule cells were dissociated from the cerebellae of 7-day-old Wistar rat pups as described (Kramer et al. 2003, Mol Cell Neurosci 23:325-330). Briefly, the cerebellae were removed, rinsed in HBSS-BSA, minced, digested with 0.025% trypsin and incubated at 37° C. for 15 min. To stop the digestion, DMEM containing 10% fetal calf serum was added; then a single cell suspension was obtained through pipetting up and down the sedimented tissue. Following centrifugation, cells were counted using trypan blue exclusion test in a Burker chamber. This method is based on the ability of viable cells to exclude trypan blue due to their intact cell membranes, leaving them unstained while nonviable cells take up the dye. Cells at 3.2×10^5/cm^2 were seeded in DMEM Hepes modification supplemented with 10% fetal calf serum, 100 μg/ml pyruvate, and 100 μg/ml gentamicin on Polystyrene 12-well tissue culture plates (CELLSTAR) coated with poly-L-lysine. After 24 h, 10 μM cytosine arabinofuranoside was added to inhibit the growth of non-neuronal cells. All pharmacological interventions begun at this time in the culture medium containing 25 mM KCl (K25), which caused depolarization of granule cells and consequently activated gene expression machinery. Moreover, the viability of granule neurons was higher in this milieu and therefore provides the possibility to maintain cells for several days. Indeed, 25 mM KCl is required in the medium for CGN cultures to maintain adequate calcineurin activity and cell maturation and depolarization (Kramer et al., 2003, Mol Cell Neurosci 23:325-330; Vallano et al. 2006, Neuropharmacology 50: 651-660). Cultures received simple medium (K25 control) or medium containing a setron compound in HCl salt form (Tocris Bioscience, Bristol, UK) at concentrations of 10 nM, 100 nM or 1000 nM for 4 days in vitro (DIV). Phosphatase calcineurin activity was assessed in CGNs using a colorimetric assay kit based on quantification of the green complex formed between malachite green, molybdate and free phosphate released. CGNs were detached from plates by scraping, rinsed in ice-cold tris buffer solution (TBS) and counted. About 10 million cells are lysed in 1 ml of the provided lysis buffer and centrifuged at 150,000×g at 4° C. for 45 min, and the supernatant was stored at −70° C. until analysis. Prior to calcineurin activity assay, free phosphate and nucleotides were removed from cellular extract by gel filtration. To ensure the complete removal of phosphate, malachite green reagent was added, which will turn the color green in presence of phosphate. […]

[2] = tested on: outer hair cells; test: Outer hair cell loss (cytocochleograms) in cochleae fixed at D14 after acoustic trauma; format: in vivo, Wistar rats
Description: Animals were exposed to 121 dB octave band noise (8-16 kHz) for 2 h in groups of 4 rats, placed in individual compartments of a custom built circular cage placed on a 30 cm diameter platform rotating at 3 turns/minute (Aqila Innovation, Valbonne, France). The calibrated octave band noise generated by the RZ6 SigGen software was further amplified by a Crown D-75 amplifier in bridge mode (Crown Audio, Elkhart, IN, USA) and delivered by four Beyma CP16 compression tweeters (Acustica Beyma S. L., Moncada, Valencia, Spain) positioned 39 cm above the rotating platform, each 10 cm from the platform center.
Animals were treated by intraperitoneal injection daily for 14 days beginning immediately after acoustic trauma induction and subsequently repeated every 24 hours. The setron compounds granisetron HCl, ondansetron HCl, tropisetron HCl and azasetron HCl (Tocris Bioscience, Bristol, UK) were delivered dissolved in saline solution (1.6 mL/kg) while Tacrolimus (Selleck Chemicals, Houston, TX, USA) was dissolved in solution composed of 10% ethanol-100%/10% Kolliphor EL/1% Tween 80/79% saline (1.0 mL/kg). Placebo treated animals received injections of 1.6 mL/kg saline following the same treatment schedule.
After audiometry on day 14, animals were deeply anaesthetized with an intraperitoneal injection of pentobarbital (100 mg/kg). The cochleae were removed, fixed with 4% paraformaldehyde, pH 7.4, decalcified with 10% EDTA, pH 7.4 and then stained with myosin VIIa 1/1000. […] The mean loss of OHCs per group was subsequently calculated as a function of normalized distance from the apex in bins of 2.5% of the total length, using the total length of each histological specimen. Cell counts could reliably be obtained for up to 90% of the total distance from the apex (corresponding to the tonotopic region up to from 0 kHz to ~50 kHz in rat, Viberg & Canlon 2004), while the last 10% was too variable due to damage incurred during dissection.
Statistical analysis was performed using two-way ANOVA (Audiometry data: frequency and treatment group. Cochleograms: normalized distance from apex and treatment group) followed by Holm-Sidak post-hoc test for multiple comparisons. Results are given as mean±SEM and a p value less than or equal to 0.05 considered significant.
To further support the conclusions from the functional audiometry data, the loss of outer hair cells in four treatment group was determined by constructing cytocochleograms from histological preparations of cochleae fixed after audiometry on day 14.

CN1C(=O)COc2c(C(=O)NC3CN4CCC3CC4)cc(Cl)cc21 (centres unmarked) [azasetron HCl, N-(1-azabicyclo[2.2.2]octan-8-yl)-6-chloro-4-methyl-3-oxo-1,4-benzoxazine-8-carboxamide] was tested, and the “effect on calcineurin phosphatase activity” value ([1]; CGNs in K25 medium, 10, 100 or 1000 nM for 4 DIV, relative to K25 control (100%)) was “significantly inhibited”, the “change of calcineurin inhibition with increasing concentration” value ([1]; CGNs, 4 DIV, 10-1000 nM) was “increased to different degree with increasing concentrations” and the “concentrations at which calcineurin inhibition was significant” value ([1]; CGNs, 4 DIV, tested at 10, 100, 1000 nM, p<=0.05 vs K25 control) was 1000 nM. For the same molecule, the “mean loss of outer hair cells compared to placebo” value ([2]; cochleae fixed after audiometry on day 14) was “significantly lower mean loss” and the “reduction of mean outer hair cell loss compared to placebo treatment” value ([2]; cochleae fixed at day 14) was 50-75%.
